This is an account of results in US7332631B2, “Fc receptor modulating compounds and compositions” (Trillium Therapeutics Inc., priority 2002, dated 2008).

Values joined by “and” are separate entries in the source; they are usually repeats but may differ in a detail not shown here. Equal entries are not always repeated. Where two headings read alike, the source gives them in different places. Peptide text beside a SMILES is read from it. * marks the point of attachment. Cbz = O=C(OCc1ccccc1)*

As usually defined, the inhibition is the percentage by which the read-out fell short of the control. One may read the melting point as the temperature of the solid-liquid transition.

One data set addresses T1, FcγRIIa (Homo sapiens, UniProt P12318).
T1 construct: endogenous in cells; host or cells: washed human platelets
T1 sequence (P12318 34-317): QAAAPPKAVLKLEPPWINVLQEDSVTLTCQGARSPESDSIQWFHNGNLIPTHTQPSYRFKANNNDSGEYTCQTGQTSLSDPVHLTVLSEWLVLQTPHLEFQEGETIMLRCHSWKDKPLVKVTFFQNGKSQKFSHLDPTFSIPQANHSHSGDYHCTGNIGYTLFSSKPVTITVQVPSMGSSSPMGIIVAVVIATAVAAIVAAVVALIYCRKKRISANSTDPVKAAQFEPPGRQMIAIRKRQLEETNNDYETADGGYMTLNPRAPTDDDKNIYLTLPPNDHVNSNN
Nature of the data set: FACS assay of activation of human platelets by heat aggregated IgG (HAGG), P-Selectin expression. The class given is cell-based. The conditions noted are these: for % Inhibition of platelet Activation / inhibition at 500 µg/mL: primary screen, single concentration of inhibitor 500 μg/ml, HAGG 40 μg/ml, several values = repeat determinations; for inhibition at 500 µg/mL: read-out: % Inhibition of platelet Activation. On the procedure:
The compounds of Table 1 were screened in a FcγRIIa dependent platelet activation assay and/or aggregation assay where platelets are activated using heat aggregated human immunoglobulin G as an immune complex. Compounds inhibiting this process were then tested for specificity. Note that the platelets were used as the target as the only Fc receptor expressed on these cells is FcγRIIa. In addition, they are very difficult to inhibit and therefore this assists in identifying compounds with reasonable potency.
The compounds of the present invention were initially screened in a rapid FACS screening assay, measuring activation of human platelets by heat aggregated IgG. […] In addition, platelets are very sensitive to a range of stimuli and activate rapidly. Activation is measured by the appearance of the protein P-Selectin on the platelet membrane after exposure to various stimuli. The stimuli were heat aggregated with IgG and as specificity controls, collagen or thrombin.
Specifically, this assay utilises washed platelets and heat aggregated IgG (HAGG) as an immune complex (agonist) to activate and crosslink FcγRIIa. Because this is a primary screen a single concentration of small molecule inhibitor is added to the platelets (final concentration of 500 μg/ml) and allowed to incubate for 30 minutes. Heat Aggregated IgG (HAGG) (40 μg/ml) is then added to the platelets and allowed to incubate for 30 minutes. Paraformaldehyde is added to the platelets for 30 minutes prior to washing. Anti-P-Selectin (FITC conjugated) and Anti-CD41 (PE conjugated) are added and the platelets are then screened by FACS to detect expression of P-Selectin, a marker of platelet activation and CD41, which is expressed by all viable platelets.
In summary, for each compound tested the activity was measured as a function of inhibition of platelet activation and/or platelet aggregation as detailed above. Specificity is defined as specific inhibition of immune complex induced platelet activation but with no effect on arachidonic acid induced activation (and where tested no effect on thrombin, collagen or ADP induced activation).
The compounds were titrated and evaluated for capacity to prevent aggregated IgG induction of p-selectin expression as a measure of activation.
In general terms: A flow cytometer gives signals particle by particle.

The target in a further data set is HSA-FcγRIIa (Homo sapiens, UniProt P02768+P12318). Nature of the data set: ELISA Inhibition Assay: inhibition of human IgG complex binding to plate-bound HSA-FcγRIIa. The conditions noted are these: HSA-FcγRIIa 5 μg/ml on plate, human IgG complex 0.2 μg/ml. On the procedure:
The compounds may also be screened using an ELISA inhibition assay to detect the blockade of IgG interaction with FcγRIIa.
Compounds were also screened using an ELISA Inhibition Assay. Human Serum Albumin genetically fused to FcγRIIa (HSA-FcγRIIa) was bound to an ELISA plate at a concentration of 5 μg/ml. The small molecule inhibitors were titrated from a starting concentration of 5 mg/ml and allowed to incubate in the presence of the receptor. A human IgG complex (0.2 μg/ml) is then added to the plate and the extent of inhibition of IgG binding by the small molecule inhibitors was measured using HRP labelled anti-human antibody.
Background: ELISA stands for enzyme-linked immunosorbent assay.

Where [1] appears, read: washed human platelets, HAGG as agonist, several values in a cell = repeat determinations, '(ICnn)' after a '<' bound = inhibition level at that concentration, read-out: Concentration at 50% inhibition of platelet activation by HAGG.
Where [2] appears, read: in vitro testing, summary table, read-out: IC50 Platelet Inhibition.

HSA-FcγRIIa, sequence (P02768+P12318 fused): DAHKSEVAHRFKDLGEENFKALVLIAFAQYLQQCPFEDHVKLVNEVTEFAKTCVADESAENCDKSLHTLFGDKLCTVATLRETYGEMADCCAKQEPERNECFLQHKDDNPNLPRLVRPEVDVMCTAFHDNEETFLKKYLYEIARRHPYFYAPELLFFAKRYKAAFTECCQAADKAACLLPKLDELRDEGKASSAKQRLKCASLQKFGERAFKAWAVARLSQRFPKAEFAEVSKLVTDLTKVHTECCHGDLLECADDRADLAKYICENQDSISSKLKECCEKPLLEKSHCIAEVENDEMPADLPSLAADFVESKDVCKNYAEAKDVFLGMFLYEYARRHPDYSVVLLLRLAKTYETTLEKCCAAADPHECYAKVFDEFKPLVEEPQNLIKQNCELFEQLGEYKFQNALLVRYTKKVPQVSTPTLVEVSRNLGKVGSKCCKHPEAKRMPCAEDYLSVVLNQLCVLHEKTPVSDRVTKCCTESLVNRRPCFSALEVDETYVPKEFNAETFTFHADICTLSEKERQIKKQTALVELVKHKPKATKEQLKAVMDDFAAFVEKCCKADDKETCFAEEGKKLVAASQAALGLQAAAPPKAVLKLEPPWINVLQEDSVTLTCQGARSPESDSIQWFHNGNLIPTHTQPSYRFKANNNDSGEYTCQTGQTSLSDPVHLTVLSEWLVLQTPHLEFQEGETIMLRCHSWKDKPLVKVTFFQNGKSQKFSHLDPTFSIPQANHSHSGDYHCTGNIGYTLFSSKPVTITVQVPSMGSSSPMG

On to `O=C(O)c1c(Cl)c2ccc([N+](=O)[O-])cc2[s+]1[O-]` (stereo not drawn) [Compound 044, 3-Chloro-6-nitro-1-benzo[b]thiophene-S-oxo-2-carboxylic acid], for which, on FcγRIIa (setting [1]), the IC50 amounted to 230 µM.

For `O=C(O)c1cccc(SCC(=O)c2cccc(C(=O)O)c2)c1` [Compound 217, 3-[2-Oxo-2-(3-carboxyphenyl)ethylsulfanyl]benzoic acid], the IC50 at FcγRIIa (setting [2]) was 320 µM; at FcγRIIa (setting [1]) it was 360 µM and > 630 µM; at HSA-FcγRIIa, 6100 µM.

With `N#Cc1cccc(C(=O)CSc2ccc(C(=O)O)cc2)c1` [Compound 385, 4-{[2-(3-cyanophenyl)-2-oxoethyl]thio}benzoic acid], the IC50 on FcγRIIa (setting [2]) turned out to be 360 µM; at FcγRIIa (setting [1]) it was 360 µM; at HSA-FcγRIIa, 6800 µM.

With `CC(NC(=O)CNC(=O)CNC(=O)OCc1ccccc1)C(=O)O` (stereo not drawn) [Compound 235], the “% Inhibition of platelet Activation” value on FcγRIIa is 30% and 49% and 54%.

Take `O=C(/C=C/c1ccccc1C(=O)O)c1ccc[nH]1` [Compound 238, 2-[3-Oxo-3-(1H-pyrrol-2-yl)propenyl]benzoic acid]: the IC50 at FcγRIIa (setting [2]) was 270 µM; on FcγRIIa (setting [1]), 270 µM; at HSA-FcγRIIa it was 17500 µM.

Regarding `O=C(O)c1ccc(SCC(=O)c2ccccc2)cc1` [Compound 384, 4-[(2-oxo-2-phenylethyl)thio]benzoic acid], the IC50 was determined as 170 µM at FcγRIIa (setting [2]), 170 µM on FcγRIIa (setting [1]) and 4800 µM at HSA-FcγRIIa.

With `O=C(O)c1ccc(C(=O)/C=C/c2ccccc2)cc1` [Compound 237, 4-[(2E)-3-phenylprop-2-enoyl]benzoic acid], the IC50 is 40 µM at FcγRIIa (setting [2]), 40 µM at FcγRIIa (setting [1]) and 6200 µM at HSA-FcγRIIa.

As for `O=C(Nc1cccc(C(=O)O)c1)Nc1cccc(C(=O)O)c1` [Compound 192], at FcγRIIa, the “% Inhibition of platelet Activation” value came to 19% and the inhibition at 500 µg/mL worked out at 22%.

Turning to `O=C(O)c1cccc(/C=N/c2cccc(C(=O)O)c2)c1` [Compound 076], at FcγRIIa, the inhibition at 500 µg/mL turned out to be 13%.

As for `O=C(O)c1ccc(/C=N/c2cccc(C(=O)O)c2)cc1` [Compound 081], the inhibition at 500 µg/mL on FcγRIIa was determined as 83%.

In the case of `N#CCCCSc1cccc(C(=O)O)c1` [Compound 239, 3-(3-Cyanopropylsulfanyl)benzoic acid], the IC50 at FcγRIIa (setting [2]) and on FcγRIIa (setting [1]) was 330 µM throughout. Moreover, the “IC50 ELISA” value on HSA-FcγRIIa was “-'ve”.

For `O=C(O)CCNC(=O)OCc1ccccc1` [Compound 233], at FcγRIIa, the “% Inhibition of platelet Activation” value was 74%.

For the compound `COc1cccc2c(OC(C)C)c(C(=O)Nc3nnn[nH]3)sc12` [Compound 090, 3-isopropoxy-7-methoxy-N-(1H-1,2,3,4-tetrazol-5-yl)-1-benzo[b]thiophene-2-carboxamide], on FcγRIIa (setting [1]), the IC50 was 195 µM and 295 µM.

For the compound `O=C(O)CNC(=O)CNC(=O)OCc1ccccc1` [Compound 236] (Cbz-Gly-Gly-OH), the “% Inhibition of platelet Activation” value at FcγRIIa was 34% and 33% and 65%.

Take `C/C(=C(/S)C(=O)NCC(=O)O)c1cccc(O)c1` [Compound 383, [3-(3-Hydroxyphenyl)-2-mercaptobut-2-enoylamino]acetic add]: the IC50 on FcγRIIa (setting [2]) is 280 µM; at FcγRIIa (setting [1]) it was 280 µM; at HSA-FcγRIIa it was 1000 µM.

For the compound `O=C(O)/C=C/c1ccc(OCCc2ccccc2)cc1` [Compound 299, 4-Phenethyloxycinnamic acid], the IC50 at FcγRIIa (setting [2]) worked out at 410 µM; on FcγRIIa (setting [1]), 410 µM; at HSA-FcγRIIa, 7200 µM.

In the case of `C/C(=C1\SC(=S)N(CC(=O)O)C1=O)c1cccc(O)c1` [Compound 374, 5-(-Methyl-3-hydroxybenzylidine)rhodanine-3-acetic acid], the IC50 at FcγRIIa (setting [2]) was found to be 220 µM; at HSA-FcγRIIa, 2000 µM.

`O=C(O)c1ccc2c(c1)C(=O)c1cc(C(=O)O)ccc1-2` [Compound 001]: the IC50 at FcγRIIa (setting [2]) amounted to 610 µM; at FcγRIIa (setting [1]) it was 600 µM; at HSA-FcγRIIa, 12200 µM.

In the case of `COc1ccc2sc(C(=O)Nc3nnn[nH]3)c(OC(C)C)c2c1[N+](=O)[O-]` [Compound 092, 3-isopropoxy-4-nitro-5-methoxy-N-(1H-1,2,3,4-tetrazol-5-yl)-1-benzo[b]thiophene-2-carboxamide], the melting point lay within 236 to 238 °C. The IC50 on FcγRIIa (setting [1]) stood at 435 µM.

For the compound `O=C(O)c1cccc(SCC(=O)c2ccccc2)c1` [Compound 294], the IC50 on FcγRIIa (setting [2]) is 80 µM; on FcγRIIa (setting [1]), < 190 µM and 135 µM and 155 µM and 80 µM; at HSA-FcγRIIa, 6000 µM.

Consider `N#Cc1cccc(C(=O)CSc2cccc(C(=O)O)c2)c1` [Compound 216, 3-[2-(3-Cyanophenyl)-2-oxoethylsulfanyl]benzoic acid], for which the IC50 at FcγRIIa (setting [2]) was found to be 250 µM; on FcγRIIa (setting [1]), 240 µM; at HSA-FcγRIIa, 3000 µM.

Regarding `O=C(O)c1cccc(/C=N/Nc2cccc(C(=O)O)c2)c1` [Compound 200], the “% Inhibition of platelet Activation” value at FcγRIIa is 98% and 54% and 95%.

On to `O=C(O)c1sc2ccccc2c1OCc1ccccc1` [Compound 333, 3-Benzyloxy-1-benzo[b]thiophene-2-carboxylic acid], for which the IC50 was 520 µM at FcγRIIa (setting [2]), 520 µM on FcγRIIa (setting [1]) and 1600 µM on HSA-FcγRIIa.

As to `O=C(O)c1sc2cc([N+](=O)[O-])ccc2c1Cl` [Compound 026, 3-Chloro-6-nitro-1-benzo[b]thiophene-2-carboxylic acid], the IC50 on FcγRIIa (setting [2]) amounted to 780 µM; at FcγRIIa (setting [1]), 100 µM; at HSA-FcγRIIa, 17500 µM.

For the compound `O=C(O)c1cccc([S+]([O-])c2cccc(C(=O)O)c2)c1` [Compound 032, 3-[(3-Carboxyphenyl)sulfinyl]benzenecarboxylic acid], the “IC50 Platelet Inhibition” value against FcγRIIa (in vitro testing, summary table) was “-'ve”. In addition, the results for the IC50 at FcγRIIa (setting [1]) and at HSA-FcγRIIa were 70 µM and 2800 µM, respectively.

As to `O=C(O)c1cccc(CNc2cccc(C(=O)O)c2)c1` [Compound 100], on FcγRIIa, the inhibition at 500 µg/mL was determined as 7%.

Consider `O=C(O)c1ccc(C(=O)CSc2ccccc2C(=O)O)cc1` [Compound 410, 2-{[2-(4-carboxyphenyl)-2-oxoethyl]thio}benzoic acid], for which the values for the IC50 on FcγRIIa (setting [2]), at FcγRIIa (setting [1]) and at HSA-FcγRIIa were 50 µM, 50 µM and 6900 µM, respectively.

For the compound `O=C(O)CCCCCNC(=O)OCc1ccccc1` [Compound 197], the IC50 at FcγRIIa (setting [2]) was found to be 1300 µM; on HSA-FcγRIIa it was 9400 µM.

With `O=C(O)c1cccc(C(=O)CSc2ccccc2C(=O)O)c1` [Compound 412, 2-{[2-(3-carboxyphenyl)-2-oxoethyl]thio}benzoic add], the values for the IC50 at FcγRIIa (setting [2]), at FcγRIIa (setting [1]) and at HSA-FcγRIIa were 60 µM, 60 µM and 7000 µM, respectively.

For `N#Cc1cccc(C(=O)CSc2ccccc2C(=O)O)c1` [Compound 411, 2-{[2-(3-cyanophenyl)-2-oxoethyl]thio}benzoic acid], the figures for the IC50 at FcγRIIa (setting [2]), at FcγRIIa (setting [1]) and at HSA-FcγRIIa were 180 µM, 180 µM and 7800 µM, respectively.

As for `O=C(O)c1cccc(C(=O)CSCC(=O)c2cccc(C(=O)O)c2)c1` [Compound 292, 1-(3-Carboxyphenyl)-2-[2-(3-carboxyphenyl)-2-oxoethylsulfanyl]ethanone], the IC50 on FcγRIIa (setting [2]) came out at 520 µM; at FcγRIIa (setting [1]) it was 520 µM; at HSA-FcγRIIa, 5600 µM.

For the compound `Cc1c(C(C)(C)C)cc(/C=C(\C#N)C(=O)O)cc1C(C)(C)C` [Compound 350], the IC50 at FcγRIIa (setting [2]) came to 290 µM; at FcγRIIa (setting [1]), 290 µM; on HSA-FcγRIIa, 1300 µM.

In the case of `O=C(O)c1cccc(/C=N/c2cc(C(=O)O)cc(C(=O)O)c2)c1` [Compound 114], the inhibition at 500 µg/mL at FcγRIIa came out at 8%.
